Experimental data reported in paper PMC5648829 (Scientific Reports, 2017).
One block for each compound: values may come before it. Where a SMILES comes first, the peptide text is derived from it.

What was measured:
[1] = tested on: sputum neutrophils; set-up: method as in PMID 27806191; settings: cystic fibrosis patients; cited from earlier work
[2] = tested on: asthma bronchial allergen challenge; set-up: method as in PMID 25018015; settings: asthma bronchial allergen challenge trial; cited from earlier work
[3] = PGP degradation assay in BALF ex-vivo (LC-MS/MS); assay type: in vitro ADME, mouse
Protocol: 200 µl of BALF were spiked with PGP and Ac-PGP at the final concentration of 10 nM. […] After incubation, samples were filtered (Amicon Ultra-0.5, Membrane Ultracel-30, PMNL 30 kD) by centrifugation (3 min at 10,000 × g). Filtered samples were transferred to vials for liquid chromatography tandem mass spectrometry (LC-MS/MS) analysis. The LC system consisted of an Acquity UPLC I-Class interfaced with a Xevo-TQS triple quadruple MS (Waters). […] PGP was monitored with MRM m/z transitions of 270.1 > 173.1 (quantifier) and 270.1 > 70.1 and 270.1 > 116.1 (qualifiers). Ac-PGP was monitored with m/z transitions of 312.2 > 112.1 (quantifier) and 312.2 > 116.1 and 312.2 > 140.1 (qualifiers).

[4] = tested on: neutrophil influx into dorsal air-pouch; experiment: Air-pouch model of acute inflammation; assay type: in vivo, mouse; settings: for PGP concentration in air-pouch exudate: PGP 500 μg/mouse
Protocol: Air-pouches were formed by subcutaneous injection of 5 ml air through a 0.22 μm filter on the backs of female LTA4H KO or wt mice. The patency of the cavity was maintained by a further 3 ml injection on day 3. Six days after the initial injection of air, LPS at 10 µg/animal and PGP, Ac-PGP, at different concentrations up to 500 µg/animal were injected into the air pouches. […] An incision was made on the top of the pouch and the injected lavage fluid pipetted out into an eppendorf tube. An aliquot of air pouch lavage fluid was used to determine total cell counts on an Advia 120® Haematology Analyser. To determine differential cell counts, cytospins were prepared for all pouch fluid samples. The cytospins were air dried prior to staining with DiffQwik differential staining solutions. Differential cell counts were performed manually (x200 magnification) to determine the percentage of neutrophil and non-neutrophil cell populations in each sample.

[5] = tested on: neutrophil influx into lungs; experiment: Stimulation of lungs with PGP and Ac-PGP (intra-tracheal); assay type: in vivo, mouse; settings: PGP up to 500 μg intra-tracheal, wt or LTA4H KO mice, 24 h
Protocol: PGP or Ac-PGP in increasing doses up to 500 ug per mouse were applied by intra-tracheal administration in 50 µl PBS to female LTA4H KO or wild type mice. After 24 h, the mice were euthanized and BALF was collected by cannulating the trachea with a catheter and lavaging the lungs 3 times with 0.4 ml cold PBS. The lavage fluid was then centrifuged and the cells analyzed by flow cytometry. Cell supernatants were used for analysis of MPO and cytokine content in BALF.

[6] = tested on: human neutrophils; experiment: Human neutrophil shape change assay; assay type: cell-based; settings: up to 100 μM
Protocol: Neutrophils were purified by Ficoll density gradient centrifugation from human blood and incubated with graded concentrations of PGP, Ac-PGP or the known neutrophil chemoattractant GROα in assay buffer containing BSA (0.1%) in PBS for 10 min at 37 °C, 5% CO2 and 90% humidity. Cells were then fixed and shape change analyzed by flow cytometry.

[7] = tested on: human neutrophils; experiment: Human neutrophil chemotaxis assay; assay type: cell-based; settings: graded concentrations up to mM range, 90 min at 37 °C
Protocol: Purified human neutrophils were labeled with calcein-AM (Fluka, Buchs, Switzerland). Test compounds (PGP, Ac-PGP, RTR, and Ac-RTR) or IL-8 (Sigma) as positive chemoattractant control were diluted in RPMI containing BSA (0.1%) and added at graded concentrations into the wells of a 96-well ChemoTX plate (3.2 mm diameter, 5 µm pore size; NeuroProbe, Gaithersburg, MD). Labeled cells (50,000 per well) were added onto the filters above the wells that received the test compounds. Plates were incubated for 90 min at 37 °C. The filters were removed and fluorescence in the receiving wells was measured using a SpectraMAX Gemini EM instrument (Molecular Devices, Sunnyvale, CA; λex = 485 nm; λem = 538 nm). The chemotactic index was measured as the ratio of fluorescence in the test wells and in control (buffer only) wells.

[8] = tested on: human neutrophils; experiment: Human neutrophil calcium flux assay; assay type: cell-based; settings: up to mM concentrations
Protocol: Purified human neutrophils were incubated in Calcium 5 loading buffer (Molecular Devices) containing Probenecid (2.5 mM, SIGMA) at 37 °C, 5% CO2 and 90% humidity for 1 h. 20 µl of the cell suspension were then transferred to a black 384-well plate with clear bottom and centrifuged at 100 g for 4 min. Test compounds PGP, Ac-PGP and fMLP (SIGMA) were prepared at graded concentrations in HBSS containing HEPES (20 mM). Fluorescence was measured in FLIPR Tetra reader (Molecular Devices) every second before and after the addition of 5 µl of compounds dilutions. The calculated F index is the difference between the maximum signal and the average baseline signal, divided by the average baseline signal.

[9] = tested on: human neutrophils; experiment: ROS generation in human neutrophils; assay type: cell-based; settings: up to mM concentrations
Protocol: Purified human neutrophils were plated in RPMI + FCS (5%) in 96-well cell culture plates (100,000 cells/well). Dihydrorhodamine 123 (SIGMA) was added at a final concentration of 3 µM together with PGP, Ac-PGP and fMLP (SIGMA) at graded concentrations and incubated for 30 min at 37 °C, 5% CO2 and 90% humidity. […] Amount of generated ROS is given as GMFI (sample)/GMFI (unstimulated control).

[10] = tested on: human neutrophils; set-up: method as in earlier work; settings: ref 27 Haddox et al.; read-out: EC50 chemotaxis of human neutrophils; cited from earlier work
[11] = target: T1, LTA4H (Homo sapiens, UniProt P09960); experiment: PGP degradation assay in human blood; assay type: cell-based; set-up: Fresh blood was collected in heparinized tubes by venipuncture from volunteers; from tissue; host or cells: fresh human whole blood from volunteers, diluted 1:3 in RPMI; settings: untreated and LPS stimulated blood, 24 h at 37 °C
T1 sequence (P09960 1-611): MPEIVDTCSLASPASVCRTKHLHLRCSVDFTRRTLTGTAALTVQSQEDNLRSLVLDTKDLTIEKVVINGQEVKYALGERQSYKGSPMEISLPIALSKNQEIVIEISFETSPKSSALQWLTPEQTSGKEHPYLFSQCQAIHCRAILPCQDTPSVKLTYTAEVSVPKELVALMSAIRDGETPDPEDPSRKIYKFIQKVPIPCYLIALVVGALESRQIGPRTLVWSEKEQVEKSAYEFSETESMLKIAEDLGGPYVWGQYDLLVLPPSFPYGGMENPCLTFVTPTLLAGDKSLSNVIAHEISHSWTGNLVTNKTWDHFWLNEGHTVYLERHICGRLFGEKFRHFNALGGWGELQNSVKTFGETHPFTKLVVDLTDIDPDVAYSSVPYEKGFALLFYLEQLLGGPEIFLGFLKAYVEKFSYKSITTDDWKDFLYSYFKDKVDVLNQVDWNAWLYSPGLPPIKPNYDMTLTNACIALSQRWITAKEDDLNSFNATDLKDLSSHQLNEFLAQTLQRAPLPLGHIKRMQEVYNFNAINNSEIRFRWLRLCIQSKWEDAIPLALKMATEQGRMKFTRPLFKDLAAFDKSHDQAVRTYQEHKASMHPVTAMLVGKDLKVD
Protocol: Fresh blood was collected in heparinized tubes by venipuncture from volunteers from the Novartis Blood Donor Center, Basel. The blood was diluted 1:3 in Roswell Park Memorial Institute (RPMI) containing HEPES (0.025 M). […] PGP and LPS were added at final concentrations of 2 µg/ml each and incubated up to 24 h at 37 °C, 5% CO2 and 90% humidity before samples were collected for LC-MS/MS analysis.

Structure (SMILES): O=C(O)c1ccc(CN2C[C@@H]3C[C@H]2CN3Cc2ccc(Oc3ccc(-c4ncco4)cc3)cc2)cc1 [Acebilustat]
reduction of sputum neutrophils [1]: 65%

Structure (SMILES): CC(=O)NC1C[C@H]2CC[C@@H](C1)N2Cc1ccc(Oc2nc3ncccc3s2)cc1 (some centres unmarked) [JNJ-40929837]
clinical efficacy [2]: did not show efficacy

PGP level after spiking into BALF ([3]; BALF from LPS challenged wt mice, PGP 10 nM, 4 h at 37 °C): undetectable levels
PGP still present ([3]; exudate (BALF) of LTA4H KO mice, after 24 h): over 80%
PGP concentration in air-pouch exudate ([4]; LTA4H KO mice, 1 h after injection): approximately 1 µg/ml
PGP concentration in air-pouch exudate ([4]; LTA4H KO mice, 4 h and 24 h after injection): no PGP was detectable
Degradation of PGP in human blood [11]: complete disappearance
Structure (SMILES): O=C(NCC(=O)N1CCC[C@H]1C(=O)O)[C@@H]1CCCN1 [PGP, H-Pro-Gly-Pro] (H-Pro-Gly-Pro-OH)
cell influx in air-pouch ([4]; 500 μg PGP, LTA4H KO mice, 24 h): failed to detect significant cell influx
cell numbers (neutrophil influx) in air-pouch ([4]; PGP up to 500 μg per air-pouch, Balb/c mice, 4 h): did not show elevated cell numbers compared to saline control
neutrophil influx in air-pouch ([4]; mice pre-treated with 30 mg/kg DG-051 before PGP injection, 4 h): unable to detect neutrophil influx
influx of neutrophils by flow cytometry of BALF cells [5]: neither able to detect influx of neutrophils
myeloperoxidase (MPO) in BALF ([5]; versus PBS control): nor elevation of myeloperoxidase (MPO) beyond the PBS control
neutrophil shape change response [6]: no response
neutrophil chemotaxis [7]: no significant increase in chemotaxis
induction of Ca2+ flux [8]: neither PGP nor Ac-PGP induced
ROS production [9]: neither PGP nor Ac-PGP induced
EC50 [10]: 15 mM
